Assay results published in paper PMC3624020 (Nature communications, 2011).

What was measured:
[1] = system: PGRMC1 in A549 lung cancer cells; settings: ref [33], [37]; cited from earlier work
[2] = system: sigma-2 receptors in hepatic membrane homogenates; test: blocking of WC-21 photoaffinity labeling of the ~24 kD protein band; format: binding; settings: rat liver membrane homogenates, photo cross-linked with WC-21, western blot

SMILES | upregulation of PGRMC1 [1] | blocking of WC-21 labeling of the ~24 kD protein band [2]
Cc1ccc2c(c1)[C@H]1CN(C)CC[C@H]1N2C(=O)CSc1nnnn1-c1ccc(Cl)cc1 [AG-205] | induced an upregulation | 
Cc1ccccc1N=C(N)Nc1ccccc1C [DTG] |  | blocked
COc1cc2c(cc1OC)CN(CCCCNC(=O)c1cc(C)ccc1OC)CC2 [RHM-1, N-[4-(3,4-dihydro-6,7-dimethoxyisoquinolin-2(1H)-yl)butyl]-2-methoxy-5-methylbenzamide] |  | blocked
